{"source": "patent US10533228B2", "about": "“3.beta-hydroxysteroid dehydrogenase in steroid dependent disease” (THE CLEVELAND CLINIC FOUNDATION, priority 2013, dated 2020)", "molecules": {"B1": {"name": "shHSD3B1 #2: lentiviral miR30-styled shRNA against HSD3B1 (SEQ ID NO: 10) (nucleic acid)", "chain": "TGCTGTTGACAGTGAGCGAAGAGGAAAGACCATGTGGTTTTAGTGAAGCCACAGATGTAAAACCACATGGTCTTTCCTCTGTGCCTACTGCCTCGGA"}, "B2": {"name": "shHSD3B1 #1: lentiviral miR30-styled shRNA against HSD3B1 (SEQ ID NO: 9) (nucleic acid)", "chain": "TGCTGTTGACAGTGAGCGACCTCATACAGAAAGTGACAAGTAGTGAAGCCACAGATGTACTTGTCACTTTCTGTATGAGGCTGCCTACTGCCTCGGA"}}, "key": {"3βHSD1 (367N)": {"tested_on": "3βHSD1 (367N)", "test": "Western blot of endogenous 3βHSD1 protein in LAPC4 after degradation inhibitor", "format": "cell-based, human", "conditions": "LAPC4, 10 μM", "text": "For Western blot analysis, whole cell protein extract was harvested using RIPA buffer (Sigma-Aldrich) with protease inhibitor cocktail (Roche). […] The protein was transferred to a PVDF membrane and was detected by mouse anti-3βHSD1 (Sigma), rabbit anti-HA (Santa Cruz Biotechnology, Santa Cruz, Calif.), and mouse anti-β-actin (Sigma) antibodies. […]"}, "[1]": {"tested_on": "polyubiquitinated 3βHSD1(367T)", "test": "Anti-ubiquitin immunoprecipitation in LNCaP", "format": "cell-based, human", "conditions": "10 uM, 8 hours"}, "[2]": {"tested_on": "polyubiquitinated 3βHSD1 (367N)", "test": "Anti-ubiquitin immunoprecipitation in LAPC4", "format": "cell-based, human", "conditions": "LAPC4, 10 μM; 8 hours", "description": "Pre-cleared lysate was incubated with mouse anti-ubiquitin antibody (Santa Cruz) at 4° C. for 3 hours and followed by adding 40 μl of Protein AG UltraLink Resin (Thermo Scientific) for another hour for pull down. After extensive washing with lysis buffer, the purified proteins were eluted with 25 μl 2×SDS sample buffer and analyzed by Western blot."}, "3βHSD1 (367T)": {"tested_on": "3βHSD1 (367T)", "test": "Western blot of endogenous 3βHSD1 protein in LNCaP after proteasome inhibitor", "format": "cell-based, human", "conditions": "10 μM, 8 hours", "description": "For Western blot analysis, whole cell protein extract was harvested using RIPA buffer (Sigma-Aldrich) with protease inhibitor cocktail (Roche). Protein concentration was determined by BCA Protein Assay Reagent (Thermo Scientific, Rockford, Ill.), and 20 μg protein was resolved by 8.5% SDS-PAGE. The protein was transferred to a PVDF membrane and was detected by mouse anti-3βHSD1 (Sigma), rabbit anti-HA (Santa Cruz Biotechnology, Santa Cruz, Calif.), and mouse anti-β-actin (Sigma) antibodies. To determine the role of the ERAD pathway in 3βHSD1 stability, cells were treated with Eeyarestatin (Sigma) for 6 hours before harvesting cell lysate."}, "3βHSD1": {"tested_on": "3βHSD1", "test": "Lentiviral shRNA knockdown, 3βHSD1 immunoblot in LNCaP", "format": "cell-based, human", "conditions": "stable lentiviral expression", "description": "Lentiviral vector construction, viral packaging and infection were performed as previously described. Chang et al., Proc. Natl. Acad. Sci. USA, 108, 13728-13733 (2011). Briefly, […] miR30-styled shRNA sequences (#1: 5′-[…] […]-3′ (SEQ ID NO: 9); #2: 5′-[…] […]-3′ (SEQ ID NO: 10)) against HSD3B1 were PCR amplified and cloned into the pGIPZ vector (Open Biosystems, Huntsville, Ala.) and confirmed by sequencing. Virus packaging was carried out in 293T cells by co-transfecting 10 μg each of pGIPZ, pMD2.G, and psPAX2 vector. To increase transduction efficiency, 30 mL supernatant containing lentiviral particles were collected, filtered with a 0.45 μm nitrocellulose membrane and concentrated by ultracentrifugation at 19,000 rpm for 2 hours and 20 minutes at room temperature without brake. […]\nFor Western blot analysis, whole cell protein extract was harvested using RIPA buffer (Sigma-Aldrich) with protease inhibitor cocktail (Roche). Protein concentration was determined by BCA Protein Assay Reagent (Thermo Scientific, Rockford, Ill.), and 20 μg protein was resolved by 8.5% SDS-PAGE. The protein was transferred to a PVDF membrane and was detected by mouse anti-3βHSD1 (Sigma), rabbit anti-HA (Santa Cruz Biotechnology, Santa Cruz, Calif.), and mouse anti-β-actin (Sigma) antibodies. […]"}, "LNCaP xenografts": {"tested_on": "LNCaP xenografts", "test": "LNCaP xenograft CRPC growth in orchiectomized mice with DHEA pellet", "format": "in vivo, mouse", "conditions": "orchiectomy and DHEA pellet", "description": "Mouse xenograft studies and abiraterone acetate treatment were done as described in detail previously. Li et al., Clin Cancer Res 18, 3571-3579 (2012). Briefly, male NOD/SCID mice 6 to 8 weeks of age were obtained from the UT Southwestern Animal Resources Center, underwent surgical orchiectomy and a DHEA pellet (5 mg 90-day sustained-release) implantation and 2 days later underwent subcutaneous injection with 7×10^6 LAPC4 cells. Tumors reaching 300 mm^3 volume were treated with intraperitoneal abiraterone acetate or vehicle (n=8 mice per treatment) once daily for 5 days per week for 4 weeks. Tumors were fresh frozen upon mouse sacrifice. For the studies of mutant 3βHSD1 knockdown, LNCaP cells (7×10^6) stably expressing shHSD3B1 #1, #2 and shCTRL were subcutaneously injected with matrigel into eugonadal NOD/SCID mice (n=15 per group). Mice with tumors reaching 100 mm^3 volume underwent surgical castration and DHEA pellet implantation. Time from castration to tumor volume ≥600 mm^3 was assessed. For the comparison between wild type and mutant 3βHSD1, LAPC4 cells (7×10^6) stably expressing pLVX-Tight-Puro-HSD3B1 (367N) or pLVX-Tight-Puro-HSD3B1 (367T) were subcutaneously injected into surgically orchiectomized NOD/SCID mice supplemented with a DHEA (5 mg 90-day sustained-release) pellet. Tumor diameters were measured by digital calipers two or three times per week."}}, "note": "Where a SMILES comes first, the peptide text is derived from it. The star is where a group is joined. Cbz = O=C(OCc1ccccc1)*", "data": [{"molecule": "CC1(C)C(N(O)C(=O)Nc2ccc(Cl)cc2)N(c2ccc(Cl)cc2)C(=O)N1CC(=O)N/N=C/C=C/c1ccc([N+](=O)[O-])o1", "note": "(stereo not drawn) [Eeyarestatin I]", "values": [{"measurement": "endogenous 3βHSD1 protein", "setting": "3βHSD1 (367N)", "value": "increases endogenous 3βHSD1 protein"}]}, {"molecule": "CC(C)C[C@@H](C=O)NC(=O)[C@H](CC(C)C)NC(=O)[C@H](CC(C)C)NC(=O)OCc1ccccc1", "note": "[MG132] (Cbz-Leu-Leu-Leu-aldehyde)", "values": [{"measurement": "3βHSD1 (367N) protein level", "setting": "3βHSD1 (367N); 8 hours", "value": "reverses 3βHSD1 (367N) protein loss"}, {"measurement": "polyubiquitinated 3βHSD1(367T) protein", "setting": "[1]", "value": "no increase in polyubiquitinated 3βHSD1(367T) protein"}, {"measurement": "polyubiquitinated 3βHSD1 (367N) protein", "setting": "[2]", "value": "increase in polyubiquitinated 3βHSD1 (367N) protein"}, {"measurement": "3βHSD1 (367T) protein level", "setting": "3βHSD1 (367T)", "value": "no 3βHSD1 (367T) protein increase"}]}, {"molecule": "B1", "values": [{"measurement": "3βHSD1 protein expression", "setting": "3βHSD1", "value": "silences 3βHSD1 protein expression"}, {"measurement": "CRPC growth (days from orchiectomy to tumor volume ≥600 mm^3)", "setting": "LNCaP xenografts", "value": "blocks CRPC growth"}]}, {"molecule": "B2", "values": [{"measurement": "3βHSD1 protein expression", "setting": "3βHSD1", "value": "silences 3βHSD1 protein expression"}, {"measurement": "CRPC growth (days from orchiectomy to tumor volume ≥600 mm^3)", "setting": "LNCaP xenografts", "value": "blocks CRPC growth"}]}]}
